Results reported in patent publication US9394555B2, “Compositions comprising a polypeptide having cellulolytic enhancing activity and a dioxy compound and uses thereof” (priority 2010, dated 2016).

B1: T. aurantiacus GH61A polypeptide: GH61A polypeptide having cellulolytic enhancing activity (SEQ ID NO: 14), recombinantly produced in Aspergillus oryzae JaL250 (protein, listed as Thermoascus aurantiacus)
chain: MSFSKIIATAGVLASASLVAGHGFVQNIVIDGKYYGGYLVNQYPYMSNPPEVIAWSTTATDLGFVDGTGYQTPDIICHRGAKPGALTAPVSPGGTVELQWTPWPDSHHGPVINYLAPCNGDCSTVDKTQLEFFKIAESGLINDDNPPGIWASDNLIAANNSWTVTIPTTIAPGNYVLRHEIIALHSAQNQDGAQNYPQCINLQVTGGGSDNPAGTLGTALYHDTDPGILINIYQKLSSYIIPGPPLYTG

Key:
[1] = test system: Thielavia terrestris GH61E polypeptide; assay: Variable pH PASC conversion assay (Examples 29, 30) with Thielavia terrestris GH61E polypeptide; type: biochemical; settings: gallic acid 0.2% w/w + Thielavia terrestris GH61E polypeptide (10 mg/g) + beta-glucosidase (10 mg/g), 72 hours, 50° C.
[2] = biological target: Aspergillus fumigatus GH61B polypeptide (Aspergillus fumigatus, UniProt Q4WP32); assay: Variable pH PASC conversion assay (Examples 29, 30) with Aspergillus fumigatus GH61B polypeptide; type: biochemical; settings: gallic acid 0.2% w/w + Aspergillus fumigatus GH61B polypeptide (10 mg/g) + beta-glucosidase (10 mg/g), 72 hours, 50° C.
Sequence of Aspergillus fumigatus GH61B polypeptide (Q4WP32 22-250): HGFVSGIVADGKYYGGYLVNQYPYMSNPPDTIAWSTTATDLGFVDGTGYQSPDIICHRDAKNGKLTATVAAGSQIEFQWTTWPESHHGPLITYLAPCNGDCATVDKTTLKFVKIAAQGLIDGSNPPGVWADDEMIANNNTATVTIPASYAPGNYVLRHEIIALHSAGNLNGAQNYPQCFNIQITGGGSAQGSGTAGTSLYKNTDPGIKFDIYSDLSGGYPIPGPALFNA

[3] = biological target: T1, Aspergillus oryzae CEL3A beta-glucosidase (Aspergillus oryzae, UniProt Q2UUD6); assay: Variable pH PASC conversion assay (Examples 29, 30) without GH61 polypeptide; type: biochemical; settings: gallic acid 0.2% w/w + Aspergillus oryzae CEL3A beta-glucosidase (10 mg/g), no GH61, 72 hours, 50° C.
T1 construct: made in house
T1 sequence (Q2UUD6 20-861): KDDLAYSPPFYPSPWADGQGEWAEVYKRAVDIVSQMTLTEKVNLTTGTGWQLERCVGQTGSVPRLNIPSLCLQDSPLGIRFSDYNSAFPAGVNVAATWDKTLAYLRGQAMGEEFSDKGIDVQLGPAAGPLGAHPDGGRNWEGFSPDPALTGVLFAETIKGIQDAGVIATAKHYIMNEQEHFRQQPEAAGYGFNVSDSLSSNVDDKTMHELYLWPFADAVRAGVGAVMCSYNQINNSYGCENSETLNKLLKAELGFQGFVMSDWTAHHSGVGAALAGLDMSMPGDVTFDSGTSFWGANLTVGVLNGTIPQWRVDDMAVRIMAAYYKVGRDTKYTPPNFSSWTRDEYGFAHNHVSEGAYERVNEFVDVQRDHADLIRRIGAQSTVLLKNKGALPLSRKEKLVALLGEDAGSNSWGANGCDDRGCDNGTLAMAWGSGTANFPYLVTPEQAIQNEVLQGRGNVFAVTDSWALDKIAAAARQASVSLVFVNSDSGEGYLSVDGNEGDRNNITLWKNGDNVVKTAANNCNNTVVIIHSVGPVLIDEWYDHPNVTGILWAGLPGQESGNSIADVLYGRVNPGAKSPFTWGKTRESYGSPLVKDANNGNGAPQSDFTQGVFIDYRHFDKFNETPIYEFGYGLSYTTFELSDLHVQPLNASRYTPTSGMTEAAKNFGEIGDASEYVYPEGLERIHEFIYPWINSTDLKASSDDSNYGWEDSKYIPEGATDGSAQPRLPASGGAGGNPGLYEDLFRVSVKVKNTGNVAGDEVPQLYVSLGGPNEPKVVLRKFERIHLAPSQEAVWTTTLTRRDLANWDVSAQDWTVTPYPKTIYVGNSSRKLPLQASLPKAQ

[4] = test system: T. aurantiacus CEL5A endoglucanase II and P. brasilianum CEL3A beta-glucosidase; assay: Microcrystalline cellulose conversion assay I (Examples 8, 9) without GH61 polypeptide; type: biochemical, Thermoascus aurantiacus; Penicillium brasilianum; settings: dioxy compound 0.3% w/w + endoglucanase II + beta-glucosidase (5 mg/g each), no GH61; 96 hours, at either 50° C. or 60° C.
Method: A 5% microcrystalline cellulose slurry was prepared by addition of 2.5 g of AVICEL®PH101 (Sigma-Aldrich, St. Louis, Mo., USA) to a graduated 50 ml screw-cap conical tube followed by 15 ml of 1 M sodium acetate pH 5 and 1 ml of 100 mM MnSO4 and approximately 20 ml of deionizer water. Each conical tube was then mixed thoroughly by shaking/vortexing, and adjusted to 50 ml total with deionized water and mixed again. Contents of the tube were then quickly transferred to a 100 ml beaker and stirred rapidly with a magnetic stirrer. Five hundred μl aliquots of the 5% AVICEL® slurry were pipetted into wells of a 2.0 ml 96-deepwell plate (Axygen, Union City, Calif., USA) using a 1000 μl micropipette with a wide aperture tip (end of tip cut off about 2 mm from the base). Three hundred μl of either deionized water or a 1% dioxy compound solution (dissolved in deionized water) was added to each well.
The dioxy compounds assayed include caffeic acid (Sigma-Aldrich, St. Louis, Mo., USA), dichlorophenolindophenol (DCPIP; Sigma-Aldrich, St. Louis, Mo., USA), ethyl gallate (Sigma-Aldrich, St. Louis, Mo., USA), gallic acid (Sigma-Aldrich, St. Louis, Mo., USA), 3,4-dihydroxybenzoic acid (Sigma-Aldrich, St. Louis, Mo., USA), pyrocatechol (Sigma-Aldrich, St. Louis, Mo., USA), pyrogallol (Sigma-Aldrich, St. Louis, Mo., USA), sinapinic acid (3,5 dimethoxy-4-hydroxy cinnamic acid; Apin Chemicals LTD, Abingdon, UK), and tannic acid (Sigma-Aldrich, St. Louis, Mo., USA).
Enzyme mixtures were prepared and then added simultaneously to all wells in a volume of 200 μl, for a total of 1 ml in each reaction. […] All experiments reported were performed in triplicate.
After approximately 4 days, the deep-well plate was removed from the incubator and chilled overnight to 4° C. The plate was then mixed well by inversion and briefly centrifuged at 52×g in a SORVALL® RT7 centrifuge (Thermo Fisher Scientific, Waltham, Mass., USA) for 10 seconds. Samples were then mixed by pipetting, and 200 μl from each well were transferred to a MULTISCREEN® HV centrifuge filter plate assembly (Millipore, Bedford, Mass., USA). The centrifuge filter plate assembly was centrifuged at 2000 rpm in a SORVALL® RT7 centrifuge for 20 minutes. […] Sugars were detected using a refractive index detector (Agilent Technologies, Inc., Santa Clara, Calif., USA) with quantification by integration compared to purified sugar standards.
In this assay only glucose was measured since beta-glucosidase was at high levels in all samples but the controls.
A limit digest was performed to determine the total concentration accessible glucose equivalents using 100 mg of T. reesei cellulase (CELLIC™ CTec, Novozymes A/S, Bagsvaerd, Denmark) per gram cellulose, Triplicate data points were averaged and standard deviation was calculated.

[5] = biological target: T. aurantiacus GH61A polypeptide (Thermoascus aurantiacus, UniProt G3XAP7, N13Y); assay: Microcrystalline cellulose conversion assay III (Examples 12, 13), T. reesei Cel7B endoglucanase I + A. oryzae CEL3A beta-glucosidase, with and without EDTA; type: biochemical; settings: 72 hours, 50° C.
Method: A 5% microcrystalline cellulose slurry was prepared by addition of 2.5 g of AVICEL® PH101 to a graduated 50 ml screw-cap conical tube followed by approximately 40 ml of deionized water. Each conical tube was then mixed thoroughly by shaking/vortexing, and adjusted to 50 ml total with deionized water and mixed again. Contents of the tube were then quickly transferred to a 100 ml beaker and stirred rapidly with a magnetic stirrer. Five hundred μl aliquots of the 5% AVICEL® slurry were pipetted into wells of a 2.0 ml 96-deepwell plate (Axygen, Union City, Calif., USA) using a 1000 μl micropipette with a wide aperture tip (end of tip cut off about 2 mm from the base). Two hundred μl of deionized water and 100 μl of 10 mM MnSO4-500 mM sodium acetate pH 5 were then added to each well. One hundred μl of either deionized water, a 1% gallic acid solution dissolved in water, or a 1% gallic acid solution containing 50 mM EDTA was added to each well. Enzyme mixtures were prepared and then added simultaneously to all wells in a volume of 100 μl, for a total of 1 ml in each reaction. […] All experiments reported were performed in triplicate.
Primary analysis of the hydrolysis reactions was performed using an AGILENT® 1100 HPLC with CHEMSTATION® software equipped with an AMINEX™ HPX-87H column. After approximately 4 days, the deep-well plate was removed from the incubator and chilled overnight to 4° C. The plate was then mixed well by inversion and briefly centrifuged 52×g in a SORVALL® RT7 centrifuge for 10 seconds. Samples were then mixed by pipetting, and 200 μl from each well were transferred to a MULTISCREEN® HV centrifuge filter plate assembly. The centrifuge filter plate assembly was centrifuged at 2000 rpm in a SORVALL® RT7 centrifuge for 20 minutes. […] Sugars were detected using a refractive index detector with quantification by integration compared to purified sugar standards.
All HPLC data processing was performed using MICROSOFT EXCEL™ software. […] In this assay only glucose was measured since beta-glucosidase was at high levels in all samples but the controls. The degree of cellulose conversion was calculated using Equation 1. Triplicate data points were averaged and standard deviation was calculated.
The microcrystalline cellulose hydrolysis assay was performed as described in Example 12.
Data were collected and analyzed, as described in Example 12, after 72 hours of incubation at 50° C.

Molecule | conversion of phosphoric acid swollen cellulose ([1]; pH 4) [%] | conversion of phosphoric acid swollen cellulose ([1]; pH 5) [%] | conversion of phosphoric acid swollen cellulose ([1]; pH 6) [%] | conversion of phosphoric acid swollen cellulose ([1]; pH 7.5) [%] | conversion of phosphoric acid swollen cellulose ([2]; pH 4) [%] | conversion of phosphoric acid swollen cellulose ([2]; pH 5) [%] | conversion of phosphoric acid swollen cellulose ([2]; pH 6) [%] | conversion of phosphoric acid swollen cellulose ([2]; pH 7.5) [%] | conversion of phosphoric acid swollen cellulose ([3]; pH 4) [%] | conversion of phosphoric acid swollen cellulose ([3]; pH 5) [%] | conversion of phosphoric acid swollen cellulose ([3]; pH 6) [%] | conversion of phosphoric acid swollen cellulose ([3]; pH 7.5) [%] | change in conversion of microcrystalline cellulose compared to the enzymes in the absence of the dioxy compound [4] | conversion of the microcrystalline cellulose ([5]; gallic acid 0.1% w/w + 5 mM EDTA + T. aurantiacus GH61A polypeptide (5 mg/g), no other enzymes) | conversion of the microcrystalline cellulose ([5]; gallic acid 0.1% w/w + 5 mM EDTA, no enzymes) | conversion of the microcrystalline cellulose ([5]; gallic acid 0.1% w/w alone, no enzymes) | conversion of the microcrystalline cellulose ([5]; T. aurantiacus GH61A polypeptide (5 mg/g) + endoglucanase I + beta-glucosidase (5 mg/g each), no gallic acid) [%] | conversion of microcrystalline cellulose ([5]; T. aurantiacus GH61A polypeptide (5 mg/g) alone)
O=C(O)c1cc(O)c(O)c(O)c1 [gallic acid] | 36.3±3.2 | 41.7±3.9 | 33.7±0.2 | 23.8±3.0 | 21.7±3.0 | 23.8±1.4 | 17.3±0.3 | 5.6±0.7 | 1.6±0.2 | 2.0±0.7 | 1.2±0.5 | 1.9±1.2 | no significant change | no significant conversion | no significant conversion | no significant conversion | – | –
B1 | – | – | – | – | – | – | – | – | – | – | – | – | – | – | – | – | 4.0±0.2 | no significant conversion
